Data set [1] deals with human breast cancer MDA-MB-468 cells. The data set is described as follows: Cell growth inhibition test against breast cancer cells (XTT). It counts as cell-based. To be noted: read-out: GI50 value (concentration of 50% growth inhibition). The procedure:
(§1) A549 cells (1000 cells/well), SK-OV-3 cells (2000 cells/well), or HCT 116 cells (1000 cells/well) were seeded in each well of 96-well plates (Nunc, catalog No. 167008), and cultured overnight. Test compounds diluted stepwise were added, and the cells were further cultured for 72 hours (final volume: 100 μL/well). Fifty μL XTT labeling mixture of Cell Proliferation Kit II (XTT) (Roche Diagnostics, catalog No. 1465015) was added to each well, and the plates were incubated at 37° C. After 1 to 3 hours, absorbance at 490 nm (reference wavelength: 655 nm) was measured with a plate reader (Molecular Device, SpectraMax 340PC^384). Growth ratios of the cells in the wells treated with the test compounds were calculated based on the growth ratio of the cells in the control well treated with solvent (dimethyl sulfoxide (DMSO)) for 72 hours, which was defined as 100%.
(§2) As cancer cell lines, human pancreatic cancer MIA PaCa-2 cells (JCRB No. 0070), human cervical cancer HeLa cells (ATCC No. CCL-2), human breast cancer MDA-MB-468 cells (ATCC No. HTB-132), human prostate cancer DU 145 cells (ATCC No. HTB-81), human skin cancer SK-MEL-28 cells (ATCC No. HTB-72), human head and neck cancer KB cells (JCRB No. 9027), human renal cancer 786-0 cells (ATCC No. CRL-1932), and human liver cancer Hep G2 cells (ATCC No. HB-8065) were used. The cells were cultured at 37° C. in a 5% carbon dioxide atmosphere (except for the human breast cancer MDA-MB-468 cells, which were cultured under the condition at 37° C.) by using the mediums mentioned below, respectively.
(§3) In the same manner as that in Test Example 1, the cells were seeded (500 to 4000 cells/well, respectively) in each well of 96-well plates (Nunc, catalog No. 167008), and growth ratios of the cells treated with test compounds were calculated. The measurement of absorbance was performed at 1.5 to 3 hours after the addition of the XTT labeling mixture.
Background: Tetrazolium dyes change colour on reduction, which living cells bring about.

For data set [2], the system named is human pancreatic cancer MIA PaCa-2 cells. The data set is described as follows: Cell growth inhibition test against pancreatic cancer cells (XTT). It counts as cell-based. As to conditions: read-out: GI50 value (concentration of 50% growth inhibition). As to the method: as §1, §2, §3
The subject of data set [3] is human colon cancer HCT 116 cells. Briefly: Cell growth inhibition test against colon cancer cells (XTT). It counts as cell-based. As to conditions: read-out: GI50 value (concentration of 50% growth inhibition), 72 hours. The procedure: (§4) As cancer cell lines, human lung cancer A549 cells (ATCC No. CCL-185), human ovarian cancer SK-OV-3 cells (ATCC No. HTB-77), and human colon cancer HCT 116 cells (ATCC No. CCL-247) were used. For the culture of A549 cells, Nutrient Mixture F-12K medium (Invitrogen, catalog No. 21127-022) containing 10% fetal bovine serum (Invitrogen, catalog No. 10099-141), 100 units/mL penicillin (Invitrogen, catalog No. 15140-122), and 100 μg/mL streptomycin (Invitrogen, catalog No. 15140-122) was used. For the culture of SK-OV-3 cells and HCT 116 cells, McCoy's 5A medium (Invitrogen, catalog No. 16600-082) containing 10% fetal bovine serum (Invitrogen, catalog No. 10099-141), 100 units/mL penicillin (Invitrogen, catalog No. 15140-122), and 100 μg/mL streptomycin (Invitrogen, catalog No. 15140-122) was used. The cells were cultured at 37° C. in a 5% carbon dioxide atmosphere.
as §1

For data set [4], the system named is human head and neck cancer KB cells. The data set is described as follows: Cell growth inhibition test against head and neck cancer cells (XTT). It counts as cell-based. To be noted: read-out: GI50 value (concentration of 50% growth inhibition). As to the method: as §1, §2, §3
The subject of data set [5] is human skin cancer SK-MEL-28 cells. The data set is described as follows: Cell growth inhibition test against skin cancer cells (XTT). It counts as cell-based. To be noted: read-out: GI50 value (concentration of 50% growth inhibition). As to the method:
as §1, §2, §3

In data set [6] the test system is human lung cancer A549 cells. Briefly: Cell growth inhibition test against lung cancer cells (XTT). To be noted: read-out: GI50 value (concentration of 50% growth inhibition), 72 hours. It counts as cell-based. The procedure:
as §4, §1

Data set [7] addresses T1, recombinant human Eg5 motor domain protein (Homo sapiens, UniProt P52732).
T1 construct: A plasmid expressing the motor domain of human Eg5 was constructed; made in house; host or cells: Escherichia coli BL21 (DE3)
T1 sequence (P52732 18-359 limits assumed): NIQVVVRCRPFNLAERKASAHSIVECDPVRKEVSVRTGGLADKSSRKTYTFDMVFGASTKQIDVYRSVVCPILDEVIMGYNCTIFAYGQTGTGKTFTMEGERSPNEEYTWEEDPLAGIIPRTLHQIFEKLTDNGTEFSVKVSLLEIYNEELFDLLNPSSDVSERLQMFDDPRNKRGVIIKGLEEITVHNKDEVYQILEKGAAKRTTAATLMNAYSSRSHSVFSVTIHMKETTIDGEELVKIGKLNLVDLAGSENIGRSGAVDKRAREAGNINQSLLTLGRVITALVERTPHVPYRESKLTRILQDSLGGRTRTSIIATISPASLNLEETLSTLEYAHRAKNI
The data set is described as follows: Eg5 enzyme inhibition test (ATPase activity). It counts as biochemical. As to conditions: for IC50: 30° C., 30 minutes, absorbance at 360 nm, read-out: Inhibition ratios (IC50) on the ATPase activity of Eg5. The procedure: A recombinant human Eg5 motor domain protein was prepared by referring to the literature [Biochemistry, Vol. 35, p. […] A plasmid expressing the motor domain of human Eg5 was constructed, and transformed into Escherichia coli BL21 (DE3). The transformant was cultured at 25° C., and when the OD600 reached 0.74, isopropyl-β-D-thiogalactoside was added at a final concentration of 0.5 mmol/L. The transformant was further cultured for 4 hours, and then the culture medium was centrifuged to collect the cells. The cells were suspended in a buffer and ultrasonicated, and then the sonicated solution was centrifuged to recover the supernatant. The supernatant was purified by cation exchange column chromatography to obtain a partially purified sample. Furthermore, the partially purified sample was purified by gel filtration column chromatography to obtain a finally purified sample.
Measurement of the ATPase activity of Eg5 was carried out by referring to the literatures [EMBO Journal, Vol. 13, p. […] Solution A was dispensed into each well of a 96-well plate as 45 μL portions. Solution B was used to serially dilute a test compound. The diluted test compound solutions in a volume of 30 μL were mixed with Solution A added beforehand in each well of the 96-well plate to start the enzymatic reaction. The enzymatic reaction was performed at 30° C. for 30 minutes. […] The relative activity was calculated to calculate IC50 value.

The test system of data set [8] is human prostate cancer DU 145 cells. The data set is described as follows: Cell growth inhibition test against prostate cancer cells (XTT). As to conditions: read-out: GI50 value (concentration of 50% growth inhibition). It counts as cell-based. The procedure:
as §1, §2, §3

Data set [9] concerns human renal cancer 786-0 cells. The data set is described as follows: Cell growth inhibition test against renal cancer cells (XTT). It counts as cell-based. To be noted: read-out: GI50 value (concentration of 50% growth inhibition). As to the method: as §1, §2, §3
In data set [10] the test system is human ovarian cancer SK-OV-3 cells. Briefly: Cell growth inhibition test against ovarian cancer cells (XTT). It counts as cell-based. To be noted: read-out: GI50 value (concentration of 50% growth inhibition), 72 hours. As to the method: as §4, §1
Data set [11] has as its system human liver cancer Hep G2 cells. The data set is described as follows: Cell growth inhibition test against liver cancer cells (XTT). It counts as cell-based. As to conditions: HepG2, read-out: GI50 value (concentration of 50% growth inhibition). As to the method: as §1, §2, §3
Data set [12] relates to human cervical cancer HeLa cells. Briefly: Cell growth inhibition test against cervical cancer cells (XTT). It counts as cell-based. To be noted: read-out: GI50 value (concentration of 50% growth inhibition). The procedure:
as §1, §2, §3

What is called melting point is the temperature of the solid-liquid transition.

On to `CC(C)(C)C(=O)NC1=NN(C(=O)C(C)(C)C)C(CCCC(=O)NCCO)(c2ccccc2)S1` (single isomer, unassigned) [Compound o, 4-[3-(2,2-Dimethylpropionyl)-5-(2,2-dimethylpropionylamino)-2-phenyl-2,3-dihydro-1,3,4-thiadiazol-2-yl]-N-(2-hydroxyethyl)butanamide], for which the GI50 in data set [1] is less than 10 µM; in data set [2], less than 10 µM; in data set [3], less than 0.1 µM; in data set [4], less than 10 µM; in data set [5], less than 10 µM; in data set [6], less than 10 µM. Also, the GI50 in data set [8], in data set [9], in data set [10], in data set [11] and in data set [12] was less than 10 µM in each case. Moreover, the “Inhibition of the ATPase activity of Eg5 (in words)” value (shortened to “Inhibition”) in data set [7] was “inhibited the ATPase activity of Eg5 in a concentration-dependent manner”. The IC50 in [7] is less than 0.1 µM.

`CCC(=O)N1N=C(N2CCCC2=O)SC1(CCNS(C)(=O)=O)c1ccccc1` (single isomer, unassigned; (-)) [Compound e, (−)-N-{2-[5-(2-Oxopyrrolidin-1-yl)-2-phenyl-3-propionyl-2,3-dihydro-1,3,4-thiadiazol-2-yl]ethyl}methanesulfonamide] came in with a melting point of 188 to 191 °C. In addition, the GI50 in data set [1] was less than 10 µM. Moreover, the GI50 in data set [2] is less than 10 µM. The GI50 in data set [3] was less than 0.1 µM. The GI50 in data set [4] is less than 10 µM. In [5], the GI50 is less than 10 µM. For the same compound, the GI50 in data set [6] was less than 10 µM. Besides, in data set [7], the “Inhibition” value is listed as “inhibited the ATPase activity of Eg5 in a concentration-dependent manner” and the IC50 is less than 0.1 µM. Besides, the GI50 in [8] is less than 10 µM. Further, in [9], the GI50 was less than 10 µM. Also, in [10], the GI50 is less than 10 µM. Moreover, the GI50 in data set [11] is less than 10 µM. Besides, the GI50 in [12] was less than 10 µM.

Turning to `CCNCCS(=O)(=O)NCCC1(c2ccccc2)SC(NC(=O)C(C)(C)C)=NN1C(=O)C(C)(C)C` (single isomer, unassigned) [Compound i, N-{4-(2,2-Dimethylpropionyl)-5-[2-(2-ethylaminoethanesulfonylamino)ethyl]-5-phenyl-4,5-dihydro-1,3,4-thiadiazol-2-yl}-2,2-dimethylpropanamide], the GI50 is less than 10 µM in data set [1]; less than 10 µM in data set [2]; less than 0.1 µM in [3]; less than 10 µM in data set [4]; less than 10 µM in data set [5]; less than 10 µM in data set [6]. The GI50 in [8], in data set [9], in data set [10], in [11] and in data set [12] was less than 10 µM in each case. Further, the “Inhibition” value in [7] is reported as “inhibited the ATPase activity of Eg5 in a concentration-dependent manner”. In data set [7], the IC50 was less than 0.1 µM.

The compound `CN(C)CCCS(=O)(=O)NCC1(c2ccccc2)SC(NC(=O)C(C)(C)C)=NN1C(=O)C(C)(C)C` (single isomer, unassigned; (-)) [Compound n, (−)-N-[5-(3-Dimethylaminopropanesulfonylaminomethyl)-4-(2,2-dimethylpropionyl)-5-phenyl-4,5-dihydro-1,3,4-thiadiazol-2-yl]-2,2-dimethyl-propanamide] yielded a melting point of 92 to 95 °C. Also, the GI50 in data set [1] is less than 10 µM. In data set [2], the GI50 was less than 10 µM. In addition, in data set [3], the GI50 was less than 0.1 µM. Besides, the GI50 in data set [4] was less than 10 µM. The GI50 in data set [5] was less than 10 µM. In data set [6], the GI50 is less than 10 µM. Further, the GI50 in data set [8] was less than 10 µM. Besides, the GI50 in data set [9] was less than 10 µM. In [10], the GI50 is less than 10 µM. Besides, the GI50 in data set [11] was less than 10 µM. For the same compound, the GI50 in [12] is less than 10 µM.

Compound `CN(C)CCS(=O)(=O)NCC1(c2ccccc2)SC(NC(=O)C(C)(C)C)=NN1C(=O)C(C)(C)C` (single isomer, unassigned; (-)) [Compound m, (−)-N-[5-(2-Dimethylaminoethanesulfonylaminomethyl)-4-(2,2-dimethyl-propionyl)-5-phenyl-4,5-dihydro-1,3,4-thiadiazol-2-yl]-2,2-dimethylpropanamide] gave a melting point of 101 to 104 °C. The GI50 in data set [1] was less than 10 µM. Besides, the GI50 in data set [2] is less than 10 µM. The GI50 in data set [3] is less than 0.1 µM. The GI50 in [4] was less than 10 µM. Also, the GI50 in data set [5] is less than 10 µM. Further, the GI50 in data set [6] was less than 10 µM. Moreover, the GI50 in [8] was less than 10 µM. Moreover, the GI50 in data set [9] was less than 10 µM. The GI50 in data set [10] is less than 10 µM. Moreover, the GI50 in data set [11] was less than 10 µM. Also, in [12], the GI50 is less than 10 µM.

Regarding `CC(C)C(=O)N1N=C(NC(=O)C(C)(C)C)SC1(CCNS(C)(=O)=O)c1ccccc1` (single isomer, unassigned; (-)) [Compound d, (−)-N-[4-Isobutyryl-5-(2-methanesulfonylaminoethyl)-5-phenyl-4,5-dihydro-1,3,4-thiadiazol-2-yl]-2,2-dimethylpropanamide], the GI50 is less than 10 µM in data set [1]; less than 10 µM in data set [2]; less than 0.1 µM in data set [3]; less than 10 µM in data set [4]; less than 10 µM in data set [5]; less than 10 µM in [6]. Further, the GI50 in [8], in data set [9], in data set [10], in [11] and in data set [12] was less than 10 µM each time. In addition, the “Inhibition” value in [7] is on record as “inhibited the ATPase activity of Eg5 in a concentration-dependent manner”. For the same compound, the IC50 in data set [7] is less than 0.1 µM.

Source of the values: patent publication US20080194653A1, “Therapeutic Agent For Solid Tumor” (KYOWA HAKKO KOGYO CO., LTD., priority 2005, published 2008).
